{"source": "the SangsterLogP compilation", "data": [{"assay": "method code SF, from Craig, N. (1990). Drug Compendium. In Hansch, C (Ed.), Comprehensive Medicinal Chemistry. Pergamon Press.", "conditions": "not given", "values": [{"smiles": "CCC(OC(C)=O)C(CC(C)N(C)C)(c1ccccc1)c1ccccc1", "note": "(stereo not drawn)", "logP": 4.27}, {"smiles": "CN(C)CCN1C(=O)c2ccccc2Nc2cc(Cl)ccc21", "logP": 3.73}, {"smiles": "CCN[C@@H](C)Cc1cccc(C(F)(F)F)c1", "logP": 3.36}, {"smiles": "CN(C)CCC1CN(C)C(=S)c2cnccc2O1", "note": "(stereo not drawn)", "logP": 1.08}, {"smiles": "Cc1ncc([N+](=O)[O-])n1CCOC(N)=O", "logP": -0.29}, {"smiles": "CCc1ncc([N+](=O)[O-])n1CCNC(=S)OC", "logP": 1.46}, {"smiles": "N#Cc1ccccc1OCC(O)CNCCNC(=O)Cc1ccc(O)cc1", "note": "(stereo not drawn)", "logP": 0.92}, {"smiles": "C[C@@H]1C[C@H]2[C@@H]3C[C@H](F)C4=CC(=O)C=C[C@]4(C)[C@@]3(F)[C@@H](O)C[C@]2(C)[C@H]1C(=O)COC(=O)C(C)(C)C", "logP": 3.86}, {"smiles": "COc1cc2c(cc1OC)C(CCCCC1NCCc3cc(OC)c(OC)cc31)NCC2", "note": "(stereo not drawn)", "logP": 3.35}, {"smiles": "Nc1ccc(S(=O)(=O)c2ccc(N)cc2)cc1", "logP": 1.03}, {"smiles": "CCC(O)C(CC(C)N(C)C)(c1ccccc1)c1ccccc1", "note": "(stereo not drawn)", "logP": 4.27}, {"smiles": "CC(C)/N=C(N)/N=C(\\N)Nc1ccc(Cl)cc1", "logP": 2.53}, {"smiles": "CCNC1C2CCC(C2)C1c1ccccc1", "note": "(stereo not drawn)", "logP": 3.2}, {"smiles": "CC(=O)O[C@H]1C[C@H](O[C@H]2[C@@H](O)C[C@H](O[C@H]3[C@@H](O)C[C@H](O[C@H]4CC[C@@]5(C)[C@H](CC[C@@H]6[C@@H]5CC[C@]5(C)[C@@H](C7=CC(=O)OC7)CC[C@]65O)C4)O[C@@H]3C)O[C@@H]2C)O[C@H](C)[C@H]1O", "logP": 1.97}, {"smiles": "O=[N+]([O-])c1cnc(-c2ccc(F)cc2)n1CCO", "logP": 1.33}, {"smiles": "CCN(CC)CCNc1ccc(CO)c2sc3ccccc3c(=O)c12", "logP": 2.7}, {"smiles": "Cc1ccccc1-n1c(C)nc2ccccc2c1=O", "logP": 2.5}, {"smiles": "CC(C)S(=O)(=O)n1c(N)nc2ccc(/C(=N\\O)c3ccccc3)cc21", "logP": 3.1}, {"smiles": "Nc1ncn([C@@H]2O[C@H](CO)[C@@H](O)[C@@H]2O)c(=O)n1", "logP": -2.17}, {"smiles": "CC(=O)[C@H]1CC[C@H]2[C@@H]3C[C@H](C)C4=CC(=O)CC[C@]4(C)[C@H]3C(=O)C[C@]12C", "logP": 2.75}, {"smiles": "NC(=O)c1csc([C@@H]2O[C@H](CO)[C@@H](O)[C@H]2O)n1", "logP": -1.73}, {"smiles": "NCc1ccccc1Sc1ccccc1CO", "logP": 2.39}, {"smiles": "Cc1ncc([N+](=O)[O-])n1CCc1ccncc1", "logP": 0.06}, {"smiles": "OCCN1CCN([C@@H]2C[C@@H](c3ccc(F)cc3)c3ccc(C(F)(F)F)cc32)CC1", "logP": 4.39}, {"smiles": "COc1cc(NS(=O)(=O)c2ccc(N)cc2)ncn1", "logP": 0.7}, {"smiles": "C=CCC1(C(C)CC)C(=O)NC(=O)NC1=O", "note": "(stereo not drawn)", "logP": 1.47}, {"smiles": "OC[C@@H](O)[C@H]1O[C@@H]2O[C@H](C(Cl)(Cl)Cl)O[C@@H]2[C@H]1O", "logP": 1.02}, {"smiles": "CSc1ccc(OCc2ncc([N+](=O)[O-])n2C)cc1", "logP": 2.5}, {"smiles": "CCC(=O)O[C@]1(c2ccccc2)CCN(C)C[C@H]1CC", "logP": 3.61}, {"smiles": "N=C(N)N1CCc2ccccc2C1", "logP": 0.75}, {"smiles": "NC(=O)CCC/N=C(\\c1ccc(Cl)cc1)c1cc(F)ccc1O", "logP": 2.97}, {"smiles": "C[C@]12CCC(=O)C=C1CC[C@@H]1[C@@H]2CC[C@@]2(C)[C@H]1CC[C@]2(O)C(=O)CO", "logP": 2.52}, {"smiles": "CCC1(CC)C(=O)NCC(C)C1=O", "note": "(stereo not drawn)", "logP": 0.78}, {"smiles": "CN1CC[C@@]23CCCC[C@@H]2[C@@H]1Cc1ccc(O)cc13", "logP": 3.11}, {"smiles": "COc1cc(S(C)=O)ccc1-c1nc2ncccc2[nH]1", "note": "(stereo not drawn)", "logP": 1.17}]}, {"assay": "method code SF, from Craig, N. (1990). Drug Compendium. In Hansch, C (Ed.), Comprehensive Medicinal Chemistry. Pergamon Press.", "conditions": "pH 4.9", "values": [{"smiles": "CCOC(=O)[C@H](CCc1ccccc1)N[C@@H](C)C(=O)N1CCC[C@H]1C(=O)O", "logD": -0.07}, {"smiles": "CCOC(=O)[C@H](CCc1ccccc1)N[C@H]1CCCN2CCC[C@@H](C(=O)O)N2C1=O", "logD": 0.55}]}, {"assay": "method code SF, from Craig, N. (1990). Drug Compendium. In Hansch, C (Ed.), Comprehensive Medicinal Chemistry. Pergamon Press.", "conditions": "pH 7.4", "values": [{"smiles": "CCOC(=O)C=C1SC(N2CCCCC2)C(=O)N1C", "note": "(stereo not drawn)", "logD": 2.3}]}]}
